Columns and labels:
[1] = in vivo; cited from earlier work
[2] = in vivo

CC(C)(C)NC[C@@H](O)c1ccc(O)c(CO)n1 [Pirbuterol(R)]
HIA(Human Intestinal Absorption) [1]: 0.6
Class(High: HIA value ≥0.7; Low: HIA value < 0.7) [2]: Low (key: High: HIA value ≥0.7; Low: HIA value < 0.7)

CC1(C)S[C@@H]2[C@H](NC(=O)C(C(=O)Oc3ccccc3)c3ccccc3)C(=O)N2[C@H]1C(=O)O (stereo partly drawn) [Carfecillin(R)]
HIA(Human Intestinal Absorption) [1]: 0.99
Class(High: HIA value ≥0.7; Low: HIA value < 0.7) [2]: High (key: High: HIA value ≥0.7; Low: HIA value < 0.7)

O=C(O)CN(CCN(CC(=O)O)CC(=O)O)CC(=O)O [Edetic_acid]
HIA(Human Intestinal Absorption) [1]: 0.05
Class(High: HIA value ≥0.7; Low: HIA value < 0.7) [2]: Low (key: High: HIA value ≥0.7; Low: HIA value < 0.7)

CCOC(=O)C1(c2ccccc2)CCN(C)CC1 [Meperidine]
HIA(Human Intestinal Absorption) [1]: 1
Class(High: HIA value ≥0.7; Low: HIA value < 0.7) [2]: High (key: High: HIA value ≥0.7; Low: HIA value < 0.7)

COP(=O)(OC)O[C@@H](c1ccc(Cl)cc1)P(=O)(OC)OC [Mifobate(R)]
HIA(Human Intestinal Absorption) [1]: 0.82
Class(High: HIA value ≥0.7; Low: HIA value < 0.7) [2]: High (key: High: HIA value ≥0.7; Low: HIA value < 0.7)

CCOC(=O)C1=C(C)NC(C)=C(C(=O)OC)[C@@H]1c1cccc([N+](=O)[O-])c1 [Nitrendipine(S)]
HIA(Human Intestinal Absorption) [1]: 0.88
Class(High: HIA value ≥0.7; Low: HIA value < 0.7) [2]: High (key: High: HIA value ≥0.7; Low: HIA value < 0.7)

OC[C@H](O)COc1ccc(Cl)cc1 [Chlorphenesin(S)]
HIA(Human Intestinal Absorption) [1]: 1
Class(High: HIA value ≥0.7; Low: HIA value < 0.7) [2]: High (key: High: HIA value ≥0.7; Low: HIA value < 0.7)

CO/N=C(\C(=O)N[C@@H]1C(=O)N2C(C(=O)OC(C)OC(C)=O)=C(COC(N)=O)CS[C@H]12)c1ccco1 (stereo partly drawn) [Cefuroximeaxetil(R)]
HIA(Human Intestinal Absorption) [1]: 0.36
Class(High: HIA value ≥0.7; Low: HIA value < 0.7) [2]: Low (key: High: HIA value ≥0.7; Low: HIA value < 0.7)

COc1ccccc1OCCNC[C@@H](O)c1ccc(C)c(S(N)(=O)=O)c1 [Amosulalol(S)]
HIA(Human Intestinal Absorption) [1]: 1
Class(High: HIA value ≥0.7; Low: HIA value < 0.7) [2]: High (key: High: HIA value ≥0.7; Low: HIA value < 0.7)

COc1ccc(CCN(C)CCC[C@@](C#N)(c2cc(OC)c(OC)c(OC)c2)C(C)C)cc1OC [Gallopamil(S)]
HIA(Human Intestinal Absorption) [1]: 0.97
Class(High: HIA value ≥0.7; Low: HIA value < 0.7) [2]: High (key: High: HIA value ≥0.7; Low: HIA value < 0.7)

NS(=O)(=O)c1cc([C@]2(O)NC(=O)c3ccccc32)ccc1Cl [Chlorthalidone(R)]
HIA(Human Intestinal Absorption) [1]: 0.65
Class(High: HIA value ≥0.7; Low: HIA value < 0.7) [2]: Low (key: High: HIA value ≥0.7; Low: HIA value < 0.7)

CCOc1cc(CC(=O)N[C@@H](CC(C)C)c2ccccc2N2CCCCC2)ccc1C(=O)O [Repaglinide(S)]
HIA(Human Intestinal Absorption) [1]: 1
Class(High: HIA value ≥0.7; Low: HIA value < 0.7) [2]: High (key: High: HIA value ≥0.7; Low: HIA value < 0.7)

O[C@@](CCN1CCCC1)(c1ccccc1)C1CCCCC1 [Procyclidine(R)]
HIA(Human Intestinal Absorption) [1]: 1
Class(High: HIA value ≥0.7; Low: HIA value < 0.7) [2]: High (key: High: HIA value ≥0.7; Low: HIA value < 0.7)

C[C@H](NC(C)(C)C)C(=O)c1cccc(Cl)c1 [Bupropion(S)]
HIA(Human Intestinal Absorption) [1]: 0.87
Class(High: HIA value ≥0.7; Low: HIA value < 0.7) [2]: High (key: High: HIA value ≥0.7; Low: HIA value < 0.7)

CCN1CCCC1CNC(=O)c1c(OC)ccc(Br)c1OC (stereo in doubt) [Remoxipride(R)]
HIA(Human Intestinal Absorption) [1]: 1
Class(High: HIA value ≥0.7; Low: HIA value < 0.7) [2]: High (key: High: HIA value ≥0.7; Low: HIA value < 0.7)

CCN1CCC[C@H]1CNC(=O)c1cc(S(=O)(=O)CC)ccc1OC [Sultopride(S)]
HIA(Human Intestinal Absorption) [1]: 0.89
Class(High: HIA value ≥0.7; Low: HIA value < 0.7) [2]: High (key: High: HIA value ≥0.7; Low: HIA value < 0.7)

N[C@@H](C(=O)N[C@@H]1C(=O)N2C(C(=O)O)=C(Cl)CC[C@H]12)c1ccccc1 [Loracarbef]
HIA(Human Intestinal Absorption) [1]: 1
Class(High: HIA value ≥0.7; Low: HIA value < 0.7) [2]: High (key: High: HIA value ≥0.7; Low: HIA value < 0.7)

CCN(CCO)CCC[C@@H](C)Nc1ccnc2cc(Cl)ccc12 [Hydroxychloroquine(R)]
HIA(Human Intestinal Absorption) [1]: 0.9
Class(High: HIA value ≥0.7; Low: HIA value < 0.7) [2]: High (key: High: HIA value ≥0.7; Low: HIA value < 0.7)

CCCCCCCN(CC)CCC[C@H](O)c1ccc(NS(C)(=O)=O)cc1 [Ibutilide(S)]
HIA(Human Intestinal Absorption) [1]: 0.82
Class(High: HIA value ≥0.7; Low: HIA value < 0.7) [2]: High (key: High: HIA value ≥0.7; Low: HIA value < 0.7)

C#CCN(C)C(C)Cc1ccccc1 (stereo in doubt) [Selegiline(S)]
HIA(Human Intestinal Absorption) [1]: 1
Class(High: HIA value ≥0.7; Low: HIA value < 0.7) [2]: High (key: High: HIA value ≥0.7; Low: HIA value < 0.7)

C[C@@H](O)Cn1cnc2c1c(=O)n(C)c(=O)n2C [Proxyphylline(R)]
HIA(Human Intestinal Absorption) [1]: 1
Class(High: HIA value ≥0.7; Low: HIA value < 0.7) [2]: High (key: High: HIA value ≥0.7; Low: HIA value < 0.7)

NC[C@H]1O[C@H](O[C@H]2[C@H](O)[C@@H](O[C@H]3O[C@H](CO)[C@@H](O)[C@H](N)[C@H]3O)[C@H](N)C[C@@H]2N)[C@H](O)[C@@H](O)[C@@H]1O [Kanamycin]
HIA(Human Intestinal Absorption) [1]: 0.01
Class(High: HIA value ≥0.7; Low: HIA value < 0.7) [2]: Low (key: High: HIA value ≥0.7; Low: HIA value < 0.7)

O=C(O[C@H]1C[C@H]2CC[C@@H](C1)[N+]21CCCC1)C(O)(c1ccccc1)c1ccccc1 [Trospium_chloride]
HIA(Human Intestinal Absorption) [1]: 0.1
Class(High: HIA value ≥0.7; Low: HIA value < 0.7) [2]: Low (key: High: HIA value ≥0.7; Low: HIA value < 0.7)

COC(=O)C(c1ccccc1)C1CCCCN1 (stereo not drawn) [Methylphenidate]
HIA(Human Intestinal Absorption) [1]: 0.8
Class(High: HIA value ≥0.7; Low: HIA value < 0.7) [2]: High (key: High: HIA value ≥0.7; Low: HIA value < 0.7)

C[N+]1(C)CCCC1COC(=O)C(O)(c1ccccc1)c1ccccc1 (stereo not drawn) [Poldine]
HIA(Human Intestinal Absorption) [1]: 0.05
Class(High: HIA value ≥0.7; Low: HIA value < 0.7) [2]: Low (key: High: HIA value ≥0.7; Low: HIA value < 0.7)

COc1ccc([C@@H](CN(C)C)C2(O)CCCCC2)cc1 [Venlafaxine(S)]
HIA(Human Intestinal Absorption) [1]: 0.95
Class(High: HIA value ≥0.7; Low: HIA value < 0.7) [2]: High (key: High: HIA value ≥0.7; Low: HIA value < 0.7)

CCOc1cc(CC(=O)NC(CC(C)C)c2ccccc2N2CCCCC2)ccc1C(=O)O (stereo in doubt) [Repaglinide(R)]
HIA(Human Intestinal Absorption) [1]: 1
Class(High: HIA value ≥0.7; Low: HIA value < 0.7) [2]: High (key: High: HIA value ≥0.7; Low: HIA value < 0.7)

CC(C)(C)NC[C@H](O)c1cc(O)cc(O)c1 [Terbutaline(R)]
HIA(Human Intestinal Absorption) [1]: 0.63
Class(High: HIA value ≥0.7; Low: HIA value < 0.7) [2]: Low (key: High: HIA value ≥0.7; Low: HIA value < 0.7)

C[C@H](CN1CCOCC1)C(C(=O)N1CCCC1)(c1ccccc1)c1ccccc1 [Dextromoramide]
HIA(Human Intestinal Absorption) [1]: 1
Class(High: HIA value ≥0.7; Low: HIA value < 0.7) [2]: High (key: High: HIA value ≥0.7; Low: HIA value < 0.7)

CC(=O)Oc1ccc2c3c1O[C@H]1[C@@H](OC(C)=O)C=C[C@H]4[C@@H](C2)N(C)CC[C@@]341 [Diacetylmorphine]
HIA(Human Intestinal Absorption) [1]: 1
Class(High: HIA value ≥0.7; Low: HIA value < 0.7) [2]: High (key: High: HIA value ≥0.7; Low: HIA value < 0.7)

COc1cc2c(cc1OC)CN(C(=O)[C@H](C)N[C@@H](CCc1ccccc1)C(=O)O)[C@H](C(=O)O)C2 [Moexipril_diacid]
HIA(Human Intestinal Absorption) [1]: 0.05
Class(High: HIA value ≥0.7; Low: HIA value < 0.7) [2]: Low (key: High: HIA value ≥0.7; Low: HIA value < 0.7)

O=[N+]([O-])O[C@H]1CO[C@H]2[C@@H]1OC[C@H]2O[N+](=O)[O-] [Isosorbide_dinitrate]
HIA(Human Intestinal Absorption) [1]: 1
Class(High: HIA value ≥0.7; Low: HIA value < 0.7) [2]: High (key: High: HIA value ≥0.7; Low: HIA value < 0.7)

CCN(CCO)CCC[C@H](C)Nc1ccnc2cc(Cl)ccc12 [Hydroxychloroquine(S)]
HIA(Human Intestinal Absorption) [1]: 0.9
Class(High: HIA value ≥0.7; Low: HIA value < 0.7) [2]: High (key: High: HIA value ≥0.7; Low: HIA value < 0.7)

O=C1Nc2ccc(Cl)cc2C(c2ccccc2Cl)=N[C@H]1O [Lorazepam(S)]
HIA(Human Intestinal Absorption) [1]: 0.95
Class(High: HIA value ≥0.7; Low: HIA value < 0.7) [2]: High (key: High: HIA value ≥0.7; Low: HIA value < 0.7)

N#C[C@H](O[C@@H]1O[C@H](CO[C@@H]2O[C@H](CO)[C@@H](O)[C@H](O)[C@H]2O)[C@@H](O)[C@H](O)[C@H]1O)c1ccccc1 [Amygdalin(S)]
HIA(Human Intestinal Absorption) [1]: 0.05
Class(High: HIA value ≥0.7; Low: HIA value < 0.7) [2]: Low (key: High: HIA value ≥0.7; Low: HIA value < 0.7)

Cc1ncc2n1-c1ccc(Cl)cc1C(c1ccccc1F)=NC2 [Midazolam]
HIA(Human Intestinal Absorption) [1]: 1
Class(High: HIA value ≥0.7; Low: HIA value < 0.7) [2]: High (key: High: HIA value ≥0.7; Low: HIA value < 0.7)

COc1ccc2c3c1O[C@H]1C(=O)CC[C@@]4(O)[C@@H](C2)N(C)CC[C@]314 [Oxycodone]
HIA(Human Intestinal Absorption) [1]: 0.6
Class(High: HIA value ≥0.7; Low: HIA value < 0.7) [2]: Low (key: High: HIA value ≥0.7; Low: HIA value < 0.7)

COC(=O)C1=C(C)NC(C)=C(C(=O)OCCN(C)Cc2ccccc2)[C@@H]1c1cccc([N+](=O)[O-])c1 [Nicardipine(R)]
HIA(Human Intestinal Absorption) [1]: 0.95
Class(High: HIA value ≥0.7; Low: HIA value < 0.7) [2]: High (key: High: HIA value ≥0.7; Low: HIA value < 0.7)

COc1cc2nc(N3CCN(C(=O)[C@@H]4COc5ccccc5O4)CC3)nc(N)c2cc1OC [Doxazosin(S)]
HIA(Human Intestinal Absorption) [1]: 1
Class(High: HIA value ≥0.7; Low: HIA value < 0.7) [2]: High (key: High: HIA value ≥0.7; Low: HIA value < 0.7)

CC1=CC(=O)N2CC(=O)N(C)c3ccc(Cl)cc3C2(c2ccccc2)O1 (stereo not drawn) [Ketazolam]
HIA(Human Intestinal Absorption) [1]: 1
Class(High: HIA value ≥0.7; Low: HIA value < 0.7) [2]: High (key: High: HIA value ≥0.7; Low: HIA value < 0.7)

COc1cccc(C(=O)CCN[C@@H](C)[C@H](O)c2ccccc2)c1 [Oxyfedrine]
HIA(Human Intestinal Absorption) [1]: 0.84
Class(High: HIA value ≥0.7; Low: HIA value < 0.7) [2]: High (key: High: HIA value ≥0.7; Low: HIA value < 0.7)

C[C@@H](CN1c2ccccc2Sc2ccccc21)N(C)C [Promethazine(S)]
HIA(Human Intestinal Absorption) [1]: 0.95
Class(High: HIA value ≥0.7; Low: HIA value < 0.7) [2]: High (key: High: HIA value ≥0.7; Low: HIA value < 0.7)

CCN1CCC[C@H]1CNC(=O)c1c(OC)ccc(Br)c1OC [Remoxipride(S)]
HIA(Human Intestinal Absorption) [1]: 1
Class(High: HIA value ≥0.7; Low: HIA value < 0.7) [2]: High (key: High: HIA value ≥0.7; Low: HIA value < 0.7)

CN1[C@@H](CSCC(F)(F)F)Nc2cc(Cl)c(S(N)(=O)=O)cc2S1(=O)=O [Polythiazide(S)]
HIA(Human Intestinal Absorption) [1]: 1
Class(High: HIA value ≥0.7; Low: HIA value < 0.7) [2]: High (key: High: HIA value ≥0.7; Low: HIA value < 0.7)

C[C@H](N[C@@H](CCc1ccccc1)C(=O)O)C(=O)N1CCC[C@H]1C(=O)O [Enalaprilat]
HIA(Human Intestinal Absorption) [1]: 0.25
Class(High: HIA value ≥0.7; Low: HIA value < 0.7) [2]: Low (key: High: HIA value ≥0.7; Low: HIA value < 0.7)
